Experimental data published in patent US8962659B2, “Phenoxyethyl piperidine compounds” (Eli Lilly and Company, priority 2012, dated 2015).
Where a name gives a salt, the structure may show the parent alone.

Columns and labels:
[1] = target: human EP1 (Homo sapiens (Human), UniProt P34995); assay: In vitro binding to human EP1 ([3H]-PGE2 displacement, membranes); conditions: [3H]-PGE2, HEK293 membranes; read-out: hEP1, Ki
Procedure: (§1) hEP1 and hEP4 membranes are prepared from recombinant HEK293 cells stably expressing the human EP1 (Genbank accession number AY275470) or EP4 (Genbank accession number AY429109) receptors. hEP2 and hEP3 membranes are prepared from HEK293 cells transiently transfected with EP2 (Genbank accession number AY275471) or EP3 (isoform VI: Genbank accession number AY429108) receptor plasmids. Frozen cell pellets are homogenized in homogenization buffer using a Teflon/glass homogenizer. Membrane protein is aliquoted and quick frozen on dry ice prior to storage at -80° C. Homogenization buffer contained 10 mM Tris-HCl, pH 7.4, 250 mM sucrose, 1 mM EDTA, 0.3 mM indomethacin and plus CompleteTM, with EDTA, obtained from Roche Molecular Biochemicals (Catalog Number 1 697 498). Kd values for [3H]-PGE2 binding to each receptor are determined by saturation binding studies or homologous competition. […] Nonspecific binding is calculated by comparing binding in the presence and absence of 2 μM of PGE2. The membranes are harvested by filtration (TomTek harvester), washed 4 times with cold buffer (10 mM MES pH 6.0 with KOH, 10 mM MgCl2), dried in a 60° C. oven, and the radioactivity is quantified as counts per minute (CPM) using a TopCount detector. Percent specific binding is calculated as the percent of the binding in the absence of any inhibitor, corrected for binding in the presence of 2 μM of PGE2.

[2] = target: rat EP4 (Rattus norvegicus (Rat), UniProt P43114); assay: In vitro rat EP4 functional antagonist activity (PGE2-stimulated cAMP, HTRF, HEK293); format: cell-based; conditions: inhibition of PGE2 (EC80)-stimulated cAMP, read-out: IC50 measured at rat EP4
Sequence of rat EP4 (P43114 whole entry): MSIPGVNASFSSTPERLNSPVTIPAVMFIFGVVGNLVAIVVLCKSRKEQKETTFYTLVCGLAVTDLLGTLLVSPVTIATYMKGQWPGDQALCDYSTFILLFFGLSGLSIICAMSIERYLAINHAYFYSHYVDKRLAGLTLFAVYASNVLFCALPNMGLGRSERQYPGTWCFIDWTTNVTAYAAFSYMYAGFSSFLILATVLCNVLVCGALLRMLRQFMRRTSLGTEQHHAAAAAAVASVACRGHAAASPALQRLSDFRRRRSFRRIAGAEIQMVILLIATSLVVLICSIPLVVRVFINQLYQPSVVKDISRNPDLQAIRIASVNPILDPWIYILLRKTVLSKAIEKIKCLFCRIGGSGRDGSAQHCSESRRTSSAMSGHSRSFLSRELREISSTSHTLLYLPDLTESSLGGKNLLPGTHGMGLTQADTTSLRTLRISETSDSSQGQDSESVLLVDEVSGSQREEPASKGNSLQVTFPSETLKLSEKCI
Procedure: Rat EP4 cDNA (Genebank Accession# NM—03276) is cloned into pcDNA 3.1 vector and subsequently transfected in HEK293 cells for receptor expression. Rat EP4 stable clone is scaled up and then frozen down as cell bank for future compounds screening. To test EP4 antagonist compounds in rEP4 cells, thaw the frozen cells and then resuspend cells in cAMP assay buffer. […] The cells are plated into 96-well half area flat-bottom polystyrene black plates (Costar 3694). […] Then diluted compounds are added into cAMP assay buffer which contains PGE2 (Cayman 14010, in a concentration predetermined to produce an EC80) at ratio of DMSO/buffer at 1/100. The cells are treated with compounds in the presence of PGE2 (EC80 concentration) for 30 minutes at room temperature. The cAMP levels generated from the cells are quantified by a cAMP HTRF assay kit (Cisbio 62AM4PEC). The plates are read on an EnVision plate reader using HTRF optimized protocol (PerkinElmer). IC50s are calculated using Graphpad Prism (v. 4) nonlinear regression, sigmoidal dose response curve fitting.

[3] = target: human EP2 (Homo sapiens (Human), UniProt P43116); assay: In vitro binding to human EP2 ([3H]-PGE2 displacement, membranes); conditions: [3H]-PGE2, HEK293 membranes; n = 3; read-out: hEP2, Ki
Sequence of human EP2 (P43116 whole entry): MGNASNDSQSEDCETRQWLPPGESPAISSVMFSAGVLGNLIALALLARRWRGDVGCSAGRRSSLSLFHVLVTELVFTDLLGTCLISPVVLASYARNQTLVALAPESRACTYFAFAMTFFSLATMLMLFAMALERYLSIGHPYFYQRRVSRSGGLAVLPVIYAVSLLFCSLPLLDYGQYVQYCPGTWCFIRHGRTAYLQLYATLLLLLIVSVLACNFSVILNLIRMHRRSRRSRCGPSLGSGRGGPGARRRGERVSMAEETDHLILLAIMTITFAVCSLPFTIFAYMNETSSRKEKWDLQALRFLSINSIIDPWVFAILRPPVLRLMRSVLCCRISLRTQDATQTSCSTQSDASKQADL
Procedure: as §1

[4] = target: human EP3 (isoform VI) (Homo sapiens (Human), UniProt P43115); assay: In vitro binding to human EP3 ([3H]-PGE2 displacement, membranes); conditions: [3H]-PGE2, HEK293 membranes; read-out: hEP3, Ki
Sequence of human EP3 (isoform VI) (P43115 other isoform, or with tags, fused parts or gaps isoform P43115-4): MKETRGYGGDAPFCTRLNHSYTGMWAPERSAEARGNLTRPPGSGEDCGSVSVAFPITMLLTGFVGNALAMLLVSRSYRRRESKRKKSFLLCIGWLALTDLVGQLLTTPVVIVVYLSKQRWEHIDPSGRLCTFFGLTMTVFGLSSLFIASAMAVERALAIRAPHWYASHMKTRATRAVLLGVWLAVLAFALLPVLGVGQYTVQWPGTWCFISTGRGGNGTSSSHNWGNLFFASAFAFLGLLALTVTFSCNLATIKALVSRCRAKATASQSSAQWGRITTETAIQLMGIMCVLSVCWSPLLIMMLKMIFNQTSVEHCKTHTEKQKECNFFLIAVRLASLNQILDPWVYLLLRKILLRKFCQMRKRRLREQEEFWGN
Procedure: as §1

Sequence of human EP1 (P34995 whole entry, canonical isoform): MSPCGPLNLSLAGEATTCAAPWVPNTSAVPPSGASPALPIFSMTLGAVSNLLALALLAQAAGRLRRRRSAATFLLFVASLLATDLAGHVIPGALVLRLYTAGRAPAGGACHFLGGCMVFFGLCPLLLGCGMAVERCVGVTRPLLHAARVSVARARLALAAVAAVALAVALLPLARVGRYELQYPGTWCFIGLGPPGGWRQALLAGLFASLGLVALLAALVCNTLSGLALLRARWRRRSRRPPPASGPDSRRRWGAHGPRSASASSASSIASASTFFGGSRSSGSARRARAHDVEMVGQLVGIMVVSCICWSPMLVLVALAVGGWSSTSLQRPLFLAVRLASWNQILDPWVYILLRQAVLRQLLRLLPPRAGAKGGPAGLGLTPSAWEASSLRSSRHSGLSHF

Ki [1]: > 17.5 µM
IC50 [2]: 0.015 µM
Ki [3]: 1.55 ± 1.86 µM
Ki [4]: > 14 µM
SMILES: C[C@H](NC(=O)[C@H]1CCCCN1CCOc1ccccc1)c1ccc(C(=O)O)cc1 [Example 1, 4-[(1S)-1-[[(2R)-1-(2-phenoxyethyl)piperidine-2-carbonyl]amino]ethyl]benzoic acid hydrochloride]
